Like-named read-outs stand apart in the source and are kept apart here. Positions of bridges follow the written chain, without caps; N, C: chain ends. Non-standard residues stand in square brackets, D forms with d. Residues, ends and D or L forms follow the SMILES beside them. *: point of attachment. Ileψ(thiazoline)Cys = CC[C@H](C)[C@H](N)C1=N[C@H](C(=O)*)CS1; dOrn = NCCC[C@@H](N)C(=O)O
Tests used:
[1] = system: S. pneumoniae 1/1; assay: MIC determination; format: cell-based, Streptococcus pneumoniae; details: for MIC: Streptococcus pneumoniae, read-out: Minimum inhibitory concentrations (MIC)
[2] = system: Haemophilus influenzae ATCC 49766; assay: checkerboard synergy assay with iclaprim; format: cell-based; details: antibiotic in combination with iclaprim; H. influenzae 49766
[3] = system: Klebsiella pneumoniae ATCC 33495; assay: checkerboard synergy assay with iclaprim; format: cell-based; details: antibiotic in combination with iclaprim; K. pneumoniae 33495
[4] = system: Moraxella catarrhalis RA 21; assay: checkerboard synergy assay with iclaprim; format: cell-based; details: antibiotic in combination with iclaprim; M. catarrhalis RA 21
[5] = system: S. aureus 101; assay: MIC determination; format: cell-based, Staphylococcus aureus
Summary of the method: (§1)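 Visible-growth endpoint after 18 h, 37 °C. Cation-adjusted Mueller-Hinton broth was used for K. pneumoniae and S. aureus in ambient air; H. influenzae (HTM) and M. catarrhalis (Brain Heart Infusion) were incubated under 5% CO2.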

[6] = system: Staphylococcus aureus, Streptococcus pneumoniae, Haemophilus influenzae, Moraxella catarrhalis and Klebsiella pneumoniae; assay: checkerboard synergy assay with iclaprim, strains pooled; format: cell-based; details: checkerboard experiments, all strains
Procedure: The synergistic potential of iclaprim against Gram-positive and Gram-negative bacteria was determined using the checkerboard assay as described in Eliopoulos GM and Moellering, Jr. RC (1991), Antimicrobial combinations, pp. 432-492, in V. Lorian (ed.), Antibiotics in laboratory medicine, 3rd Ed., The Williams & Wilkins Co., Baltimore, the entire disclosure of which is herein incorporated by reference, allowing multiple test concentrations of iclaprim to be assayed in the presence of various concentrations of the other antibiotic in microtiter plates. The same growth media and conditions were used as described in 3.2 below.
Two different dilutions were used for iclaprim depending on the MIC determined for the bacterium. […] Iclaprim and the other antibiotic being tested were also dispensed alone in the last row and in the last column, respectively, as controls.
The Fractional Inhibitory Concentrations (FIC) for each added agent were calculated and used to determine the sum of FIC (ΣFIC) indicative of the synergistic potential of a given combination as described in Veyssier P. (1999), Inhibiteurs de la dihydrofolate reductase, nitrohétérocycles (furanes) et 8-hydroxyquinoleines, pp. 995-1027, in A. Bryskier (ed.), Antibiotiques agents antibatériens et antifongiques, 1st Ed., Ellipses Edition Marketing SA, Paris, the entire disclosure of which is herein incorporated by reference. Synergy was defined whereby the ΣFIC was <0.5, indifference (no synergy nor antagonism) whereby ΣFIC was ≥0.5 but ≤4, and antagonism whereby ΣFIC was >4. Additivity as a special form of indifference was defined whereby the ΣFIC was ≥0.5 but <1, for example as described in Stevens, D L et al. (1998), In vitro antimicrobial effects of various combinations of penicillin and clindamycin against four strains of Streptococcus pyogenes, J. Antimicrob. Chemother. 42: 1266-1268, the entire disclosure of which is herein incorporated by reference.

[7] = system: Haemophilus influenzae ATCC 49766; assay: MIC determination; format: cell-based; details: for MIC: Haemophilus influenzae, read-out: Minimum inhibitory concentrations (MIC)
Summary of the method: as §1

[8] = system: Streptococcus pneumoniae ATCC 49619; assay: MIC determination; format: cell-based; details: for MIC: Streptococcus pneumoniae, read-out: Minimum inhibitory concentrations (MIC)
[9] = system: Staphylococcus aureus ATCC 25923; assay: MIC determination; format: cell-based; details: for MIC: Staphylococcus aureus, read-out: Minimum inhibitory concentrations (MIC)
Summary of the method: as §1

[10] = system: Klebsiella pneumoniae ATCC 33495; assay: MIC determination; format: cell-based; details: for MIC: Klebsiella pneumoniae, read-out: Minimum inhibitory concentrations (MIC)
Summary of the method: as §1

[11] = system: Moraxella catarrhalis RA 21; assay: MIC determination; format: cell-based; details: for MIC: Moraxella catarrhalis, read-out: Minimum inhibitory concentrations (MIC)
Summary of the method: as §1

[12] = system: Streptococcus pneumoniae ATCC 49619; assay: checkerboard synergy assay with iclaprim; format: cell-based; details: antibiotic in combination with iclaprim; S. pneumoniae 49619
[13] = system: Staphylococcus aureus ATCC 25923; assay: checkerboard synergy assay with iclaprim; format: cell-based; details: antibiotic in combination with iclaprim; S. aureus 25923
[14] = system: S. pneumoniae 1/1; assay: checkerboard synergy assay with iclaprim; format: cell-based, Streptococcus pneumoniae; details: antibiotic in combination with iclaprim
[15] = system: S. aureus 101; assay: checkerboard synergy assay with iclaprim; format: cell-based, Staphylococcus aureus; details: antibiotic in combination with iclaprim
[16] = S. pneumoniae 1/1, 18 hours at 37° C., 5% CO2
[17] = Staphylococcus aureus, 101, 18 h; read-out: Minimum inhibitory concentrations (MIC)
[18] = ATCC49619, S. pneumoniae 49619, 18 hours at 37° C., 5% CO2
[19] = ATCC25923, S. aureus 25923, 18 hours at 37° C.
[20] = ATCC33495, K. pneumonia 33495, 18 hours at 37° C.
[21] = RA21, M. catarrhalis RA 21, 18 hours at 37° C., 5% CO2
[22] = Staphylococcus aureus, 101, 18 h, read-out: Minimum inhibitory concentrations (MIC)
[23] = ATCC49766, H. Influenza 49766, 18 hours at 37° C., 5% CO2

Compound | MIC [1, 16] [µg/mL] | Con (Conclusion) [2] | Con (Conclusion) [3] | Con (Conclusion) [4] | MIC [5, 17] [µg/mL] | MIC ([7]; ATCC49766, 18 h) [µg/mL] | MIC [8, 18] [µg/mL] | MIC [9, 19] [µg/mL] | MIC [10, 20] [µg/mL] | MIC [11, 21] [µg/mL] | Σ FIC [2] | Σ FIC [12] | Σ FIC [13] | Σ FIC [3] | Σ FIC [4] | Σ FIC [14] | Σ FIC [15] | MIC [7, 23] [µg/mL] | further results
Cc1cc(NS(=O)(=O)c2ccc(N)cc2)no1 [Sulfamethoxazole, N1-(5-methyl-3-isoxazolyl)sulfanilamide] | > 128 | Syn (Synergy (Syn)) | Ad (Additivity (Ad)) | Syn (Synergy (Syn)) | > 128 | 128 | > 128 | > 128 | > 128 | > 128 |  |  |  |  |  |  |  |  | synergistic potential with iclaprim [6]: highly synergistic
Gentamicin |  | Ind (Indifference (Ind)) | Ad (Additivity (Ad)) | Ind (Indifference (Ind)) |  |  |  |  |  |  | 1.02-1.13 | 0.75-1.13 | 2.05-2.48 | 0.63-1.25 | 1.00-1.25 | 1.06-1.50 | 1.01-1.50 |  | Minimum inhibitory concentrations (MIC) [1, 16]: 32 µg/mL; Con (Conclusion) [12]: Ad (Additivity (Ad)); Con (Conclusion) [13]: Ind (Indifference (Ind)); Con (Conclusion) [14]: Ind (Indifference (Ind)); Minimum inhibitory concentrations (MIC) ([5]; S. aureus 101; 18 hours at 37° C.): >128 µg/mL; Con (Conclusion) [15]: Ind (Indifference (Ind)); Minimum inhibitory concentrations (MIC) ([7]; H. Influenza 49766, 18 hours at 37° C., 5% CO2): 2 µg/mL; Minimum inhibitory concentrations (MIC) ([8]; S. pneumoniae 49619, 18 hours at 37° C., 5% CO2): 32 µg/mL; Minimum inhibitory concentrations (MIC) ([9]; S. aureus 25923, 18 hours at 37° C.): 0.5 µg/mL; Minimum inhibitory concentrations (MIC) ([10]; K. pneumonia 33495, 18 hours at 37° C.): 1 µg/mL; Minimum inhibitory concentrations (MIC) ([11]; M. catarrhalis RA 21, 18 hours at 37° C., 5% CO2): 2 µg/mL
CN[C@H](CC(C)C)C(=O)N[C@H]1C(=O)N[C@@H](CC(N)=O)C(=O)N[C@H]2C(=O)N[C@H]3C(=O)N[C@H](C(=O)N[C@H](C(=O)O)c4cc(O)cc(O)c4-c4cc3ccc4O)[C@H](O)c3ccc(c(Cl)c3)Oc3cc2cc(c3O[C@@H]2O[C@H](CO)[C@@H](O)[C@H](O)[C@H]2O[C@H]2C[C@](C)(N)[C@H](O)[C@H](C)O2)Oc2ccc(cc2Cl)[C@H]1O [Vancomycin] |  | Ind (Indifference (Ind)) | Ind (Indifference (Ind)) | Ad (Additivity (Ad)) |  | 128 |  |  |  |  | 1.00-1.25 | 1.00-1.25 | 1.03-1.50 | 1.01-1.50 | 0.75-1.13 | 0.56-1.03 | 0.75-1.25 |  | MIC ([1]; 1/1, 18 h): 0.5 µg/mL; MIC [5, 22]: 2 µg/mL; MIC ([8]; ATCC49619, 18 h): 0.5 µg/mL; MIC ([9]; ATCC25923, 18 h): 2 µg/mL; MIC ([10]; ATCC33495, 18 h): > 128 µg/mL; MIC ([11]; RA21, 18 h): > 128 µg/mL
CC[C@H](C)[C@H](N)C1=N[C@H](C(=O)N[C@@H](CC(C)C)C(=O)N[C@H](CCC(=O)O)C(=O)N[C@H](C(=O)N[C@H]2CCCCNC(=O)[C@H](CC(N)=O)NC(=O)[C@@H](CC(=O)O)NC(=O)[C@H](Cc3cnc[nH]3)NC(=O)[C@@H](Cc3ccccc3)NC(=O)[C@H]([C@@H](C)CC)NC(=O)[C@@H](CCCN)NC2=O)[C@@H](C)CC)CS1 [Bacitracin] ({Ileψ(thiazoline)Cys}-L[dE]IK[dOrn]I[dF]H[dD]N; lactam 4-C) | 8 | Ind (Indifference (Ind)) | Ind (Indifference (Ind)) | Ad (Additivity (Ad)) | 32 |  | 32 | > 128 | > 128 | 8 | 1.01-1.50 | 0.75-1.13 | 0.74-1.13 | 1.01-1.50 | 0.56-1.25 | 0.51-1.06 | 0.75-1.13 | > 128 | 
C=C(NC(=O)C(=C)NC(=O)c1csc(C2=N[C@@H]3c4csc(n4)[C@H]4NC(=O)c5csc(n5)[C@H]([C@](C)(O)[C@@H](C)O)NC(=O)[C@H]5CSC(=N5)/C(=C/C)NC(=O)[C@H]([C@@H](C)O)NC(=O)c5csc(n5)[C@]3(CC2)NC(=O)[C@H](C)NC(=O)C(=C)NC(=O)[C@H](C)NC(=O)[C@H]([C@@H](C)CC)N[C@@H]2C=Cc3c([C@H](C)O)cc(nc3[C@H]2O)C(=O)O[C@@H]4C)n1)C(N)=O [Thiostrepton] |  | Ind (Indifference (Ind)) | Ind (Indifference (Ind)) | Ind (Indifference (Ind)) |  | 32 |  |  |  |  | 1.02-1.50 | 1.12-1.50 | 1.02-1.50 | 1.01-1.50 | 1.02-1.50 | 1.12-1.50 | 1.50-2.25 |  | MIC ([1]; 1/1, 18 h): 0.063 µg/mL; MIC [5, 22]: 0.5 µg/mL; MIC ([8]; ATCC49619, 18 h): 0.063 µg/mL; MIC ([9]; ATCC25923, 18 h): 0.5 µg/mL; MIC ([10]; ATCC33495, 18 h): > 128 µg/mL; MIC ([11]; RA21, 18 h): 0.5 µg/mL
NC(=O)c1cc[n+](CC2=C(C(=O)O)N3C(=O)[C@@H](NC(=O)[C@@H](c4ccccc4)S(=O)(=O)[O-])[C@H]3SC2)cc1 [Cefsulodine, Cefsulodin] | > 128 | Ind (Indifference (Ind)) | Ind (Indifference (Ind)) | Ind (Indifference (Ind)) | 64 |  | 16 | 64 | > 128 | > 128 | 1.01-1.50 | 1.13-1.50 | 1.00-1.25 | 1.01-1.50 | 1.00-1.25 | 1.01-1.50 | 1.00-1.25 | > 128 | 
CCn1cc(C(=O)O)c(=O)c2cc(F)c(N3CCNC(C)C3)c(F)c21 (stereo not drawn) [Lomefloxacin] | 8 | Ind (Indifference (Ind)) | Ind (Indifference (Ind)) | Ad (Additivity (Ad)) | 128 |  | 8 | 1 | 4 | 0.5 | 1.06-1.50 | 0.75-1.13 | 1.06-1.50 | 1.13-1.50 | 0.63-1.13 | 0.75-1.13 | 1.02-1.50 | 0.125 | 

Reference: patent US20200038399A1, “FORMULATIONS, METHODS, KIT, AND DOSAGE FORMS FOR TREATING BACTERIAL INFECTION” (Motif BioSciences Inc., priority 2016, published 2020)
